From PubChem BioAssay AID2060889 (Molecular Pharmacology Branch, DTP, NCI, 2025)
“And” between values parts separate entries of the source, which are not always exact repeats. Equal values may be shown once.

Test system: LG0567-F671-PDC complex spheroids viability
Assay: Anticancer human tumor LG0567-F671-PDC patient-derived lung adenocarcinoma cell line growth inhibition [RAS]
Details: for viability, T/C: stronger effect = lower value
How it was run: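 Agents were tested in combination matrices in half-log decrements from a top concentration at or near clinical Cmax (10 microM if undetermined). Targets were multi-cell spheroids of tumour lines plus HUVEC and MSC stromal cells.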

[1] = curve of first compound, second compound 0.00316 µM
[2] = curve of first compound, second compound 0.01 µM
[3] = curve of first compound, second compound 0.0316 µM
[4] = curve of first compound, second compound 0.1 µM
[5] = curve of first compound, second compound 0.316 µM
[6] = curve of first compound, second compound 1 µM
[7] = second compound 0.00316 µM, first compound 0.00316 µM
[8] = second compound 0.00316 µM, first compound 0.01 µM
[9] = second compound 0.00316 µM, first compound 0.0316 µM
[10] = second compound 0.00316 µM, first compound 0.1 µM
[11] = second compound 0.01 µM, first compound 0.00316 µM
[12] = second compound 0.01 µM, first compound 0.01 µM
[13] = second compound 0.01 µM, first compound 0.0316 µM
[14] = second compound 0.01 µM, first compound 0.1 µM
[15] = second compound 0.0316 µM, first compound 0.00316 µM
[16] = second compound 0.0316 µM, first compound 0.01 µM
[17] = second compound 0.0316 µM, first compound 0.0316 µM
[18] = second compound 0.0316 µM, first compound 0.1 µM
[19] = second compound 0.1 µM, first compound 0.00316 µM
[20] = second compound 0.1 µM, first compound 0.01 µM
[21] = second compound 0.1 µM, first compound 0.0316 µM
[22] = second compound 0.1 µM, first compound 0.1 µM
[23] = second compound 0.316 µM, first compound 0.00316 µM
[24] = second compound 0.316 µM, first compound 0.01 µM
[25] = second compound 0.316 µM, first compound 0.0316 µM
[26] = second compound 0.316 µM, first compound 0.1 µM
[27] = second compound 1 µM, first compound 0.00316 µM
[28] = second compound 1 µM, first compound 0.01 µM
[29] = second compound 1 µM, first compound 0.0316 µM
[30] = second compound 1 µM, first compound 0.1 µM
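Further: spheroids exposed to compound for seven days before readout.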
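Wherever IC50 is given: luminescence signal used as a proxy for viable cells.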

For `CCc1c2c(nc3ccc(O)cc13)-c1cc3c(c(=O)n1C2)COC(=O)[C@]3(O)CC` + C=CC(=O)N1CCN(c2nc(OCC3CCCN3C)nc3c(F)c(-c4nc(N)cc(C)c4C(F)(F)F)c(Cl)cc23)C(C)C1, the IC50 [1] was < 0.949 nM, the IC50 [2] was < 0.949 nM and the IC50 [3] was < 0.949 nM. The IC50 [4] was < 0.949 nM, the IC50 [5] was < 0.949 nM and the IC50 [6] was < 0.949 nM. For the same compound, the viability, T/C (second compound 0.00316 µM, first compound 0.000949 µM) was 17.1%, the viability, T/C (second compound 0.00316 µM, first compound 0.003 µM) was 14.7% and the viability, T/C (second compound 0.00316 µM, first compound 0.00949 µM) was 15%. It also gave a viability, T/C (second compound 0.00316 µM, first compound 0.03 µM) of 12.2%, a viability, T/C (second compound 0.00316 µM, first compound 0.0949 µM) of 7.62% and a viability, T/C (second compound 0.00316 µM, first compound 0.3 µM) of 4.2%. For the same compound, the viability, T/C (second compound 0.01 µM, first compound 0.000949 µM) was 18%, the viability, T/C (second compound 0.01 µM, first compound 0.003 µM) was 13.9% and the viability, T/C (second compound 0.01 µM, first compound 0.00949 µM) was 12.2%. It also gave a viability, T/C (second compound 0.01 µM, first compound 0.03 µM) of 10.3%, a viability, T/C (second compound 0.01 µM, first compound 0.0949 µM) of 6.26% and a viability, T/C (second compound 0.01 µM, first compound 0.3 µM) of 3.82%. For the same compound, the viability, T/C (second compound 0.0316 µM, first compound 0.000949 µM) was 14.9%, the viability, T/C (second compound 0.0316 µM, first compound 0.003 µM) was 11.9% and the viability, T/C (second compound 0.0316 µM, first compound 0.00949 µM) was 14%. The viability, T/C (second compound 0.0316 µM, first compound 0.03 µM) was 8.57%, the viability, T/C (second compound 0.0316 µM, first compound 0.0949 µM) was 6.15% and the viability, T/C (second compound 0.0316 µM, first compound 0.3 µM) was 3.69%. For the same compound, the viability, T/C (second compound 0.1 µM, first compound 0.000949 µM) was 13.6%, the viability, T/C (second compound 0.1 µM, first compound 0.003 µM) was 12.4% and the viability, T/C (second compound 0.1 µM, first compound 0.00949 µM) was 9.96%. The viability, T/C (second compound 0.1 µM, first compound 0.03 µM) was 9.55%, the viability, T/C (second compound 0.1 µM, first compound 0.0949 µM) was 6.17% and the viability, T/C (second compound 0.1 µM, first compound 0.3 µM) was 2.99%. For the same compound, the viability, T/C (second compound 0.316 µM, first compound 0.000949 µM) was 12.7%, the viability, T/C (second compound 0.316 µM, first compound 0.003 µM) was 12.2% and the viability, T/C (second compound 0.316 µM, first compound 0.00949 µM) was 11.6%. It also gave a viability, T/C (second compound 0.316 µM, first compound 0.03 µM) of 9.06%, a viability, T/C (second compound 0.316 µM, first compound 0.0949 µM) of 6.73% and a viability, T/C (second compound 0.316 µM, first compound 0.3 µM) of 3.59%. It also gave a viability, T/C (second compound 1 µM, first compound 0.000949 µM) of 13.1%, a viability, T/C (second compound 1 µM, first compound 0.003 µM) of 13.5% and a viability, T/C (second compound 1 µM, first compound 0.00949 µM) of 12.9%. The viability, T/C (second compound 1 µM, first compound 0.03 µM) was 9.98%, the viability, T/C (second compound 1 µM, first compound 0.0949 µM) was 8.33% and the viability, T/C (second compound 1 µM, first compound 0.3 µM) was 4.38%.

With `CC(Nc1ccc2c(c1)OCCn1cc(N3C(=O)OCC3C(F)F)nc1-2)C(N)=O` (stereo not given) the viability, T/C (compound 0.0316 µM) was 79.5% [middle of 4 runs], the viability, T/C (compound 0.1 µM) was 63.3% [middle of 4 runs] and the viability, T/C (compound 0.316 µM) was 52.5% [middle of 4 runs]. The viability, T/C (compound 1 µM) was 43.4% [middle of 4 runs], the viability, T/C (compound 3.16 µM) was 33.8% (2×) and 32.1% and 37.8% and the viability, T/C (compound 10 µM) was 30.5% [middle of 4 runs]. For the same compound, the IC50 (curve of compound) was 386 nM [middle of 4 runs].

With `CC(=O)OC12COC1CC(O)C1(C)C(=O)C(O)C3=C(C)C(OC(=O)C(O)C(NC(=O)OC(C)(C)C)c4ccccc4)CC(O)(C(OC(=O)c4ccccc4)C21)C3(C)C` (stereo not given) the viability, T/C (compound 0.0316 µM) was 51.5% [middle of 4 runs], the viability, T/C (compound 0.1 µM) was 44.6% [middle of 4 runs] and the viability, T/C (compound 0.316 µM) was 58.4% [middle of 4 runs]. The viability, T/C (compound 1 µM) was 62.5% [middle of 4 runs], the viability, T/C (compound 3.16 µM) was 70.3% [middle of 4 runs] and the viability, T/C (compound 10 µM) was 63.5% [middle of 4 runs]. For the same compound, the IC50 (curve of compound) was < 31.6 nM.

For `CC(C)n1nc(-c2ccc3oc(N)nc3c2)c2c(N)ncnc21` + C=CC(=O)N1CCN(c2nc(OCC3CCCN3C)nc3c(F)c(-c4nc(N)cc(C)c4C(F)(F)F)c(Cl)cc23)C(C)C1, the IC50 [1] was < 0.316 nM, the IC50 [2] was < 0.316 nM and the IC50 [3] was < 0.316 nM. For the same compound, the IC50 [4] was < 0.316 nM, the IC50 [5] was < 0.316 nM and the IC50 [6] was < 0.316 nM. It also gave a viability, T/C (second compound 0.00316 µM, first compound 0.000316 µM) of 13.7%, a viability, T/C (second compound 0.00316 µM, first compound 0.001 µM) of 17.2% and a viability, T/C [7] of 11.4%. For the same compound, the viability, T/C [8] was 9.86%, the viability, T/C [9] was 7.75% and the viability, T/C [10] was 6.24%. It also gave a viability, T/C (second compound 0.01 µM, first compound 0.000316 µM) of 12.6%, a viability, T/C (second compound 0.01 µM, first compound 0.001 µM) of 10.8% and a viability, T/C [11] of 10.5%. It also gave a viability, T/C [12] of 7.96%, a viability, T/C [13] of 7.27% and a viability, T/C [14] of 4.67%. For the same compound, the viability, T/C (second compound 0.0316 µM, first compound 0.000316 µM) was 12.2%, the viability, T/C (second compound 0.0316 µM, first compound 0.001 µM) was 11.5% and the viability, T/C [15] was 9.25%. The viability, T/C [16] was 10.8%, the viability, T/C [17] was 6.75% and the viability, T/C [18] was 4.77%. For the same compound, the viability, T/C (second compound 0.1 µM, first compound 0.000316 µM) was 11.1%, the viability, T/C (second compound 0.1 µM, first compound 0.001 µM) was 10.7% and the viability, T/C [19] was 10.9%. The viability, T/C [20] was 8.59%, the viability, T/C [21] was 7.47% and the viability, T/C [22] was 4.81%. It also gave a viability, T/C (second compound 0.316 µM, first compound 0.000316 µM) of 11.6%, a viability, T/C (second compound 0.316 µM, first compound 0.001 µM) of 10.8% and a viability, T/C [23] of 9.88%. For the same compound, the viability, T/C [24] was 7.87%, the viability, T/C [25] was 6.07% and the viability, T/C [26] was 4.55%. For the same compound, the viability, T/C (second compound 1 µM, first compound 0.000316 µM) was 14.2%, the viability, T/C (second compound 1 µM, first compound 0.001 µM) was 11.4% and the viability, T/C [27] was 14.3%. The viability, T/C [28] was 10.9%, the viability, T/C [29] was 7.1% and the viability, T/C [30] was 5.83%.

`O=C(c1ccc(F)c(F)c1Nc1ccc(I)cc1F)N1CC(O)([C@@H]2CCCCN2)C1` + C=CC(=O)N1CCN(c2nc(OCC3CCCN3C)nc3c(F)c(-c4nc(N)cc(C)c4C(F)(F)F)c(Cl)cc23)C(C)C1 was tested, and the IC50 [1] was < 3.16 nM, the IC50 [2] was < 3.16 nM and the IC50 [3] was < 3.16 nM. For the same compound, the IC50 [4] was < 3.16 nM, the IC50 [5] was < 3.16 nM and the IC50 [6] was < 3.16 nM. The viability, T/C [7] was 15.6%, the viability, T/C [8] was 16.9% and the viability, T/C [9] was 8.91%. It also gave a viability, T/C [10] of 8.75%, a viability, T/C (second compound 0.00316 µM, first compound 0.316 µM) of 3.51% and a viability, T/C (second compound 0.00316 µM, first compound 1 µM) of 1.58%. The viability, T/C [11] was 12.4%, the viability, T/C [12] was 11.6% and the viability, T/C [13] was 10.7%. It also gave a viability, T/C [14] of 5.03%, a viability, T/C (second compound 0.01 µM, first compound 0.316 µM) of 3.8% and a viability, T/C (second compound 0.01 µM, first compound 1 µM) of 1.56%. It also gave a viability, T/C [15] of 11.8%, a viability, T/C [16] of 8.27% and a viability, T/C [17] of 7.53%. For the same compound, the viability, T/C [18] was 5.24%, the viability, T/C (second compound 0.0316 µM, first compound 0.316 µM) was 3.75% and the viability, T/C (second compound 0.0316 µM, first compound 1 µM) was 1.45%. For the same compound, the viability, T/C [19] was 11.5%, the viability, T/C [20] was 9.3% and the viability, T/C [21] was 6.61%. It also gave a viability, T/C [22] of 5.01%, a viability, T/C (second compound 0.1 µM, first compound 0.316 µM) of 2.96% and a viability, T/C (second compound 0.1 µM, first compound 1 µM) of 1.42%. For the same compound, the viability, T/C [23] was 12.2%, the viability, T/C [24] was 9.6% and the viability, T/C [25] was 6.94%. For the same compound, the viability, T/C [26] was 5.35%, the viability, T/C (second compound 0.316 µM, first compound 0.316 µM) was 3.61% and the viability, T/C (second compound 0.316 µM, first compound 1 µM) was 1.71%. It also gave a viability, T/C [27] of 12.3%, a viability, T/C [28] of 10.1% and a viability, T/C [29] of 7.82%. It also gave a viability, T/C [30] of 5.94%, a viability, T/C (second compound 1 µM, first compound 0.316 µM) of 4.07% and a viability, T/C (second compound 1 µM, first compound 1 µM) of 1.77%.
